According to patent US9353150B2, “Substituted pyrazino[1′,2′:1 ,5]pyrrolo[2,3-b]-indole-1,4-diones for cancer treatment” (Massachusetts Institute of Technology, priority 2012, dated 2016):
Entries after “also recorded” stand apart in the source; their conditions may differ. Like-named read-outs stand apart in the source and are kept apart here.

Assays:
U-937 cells = test: Apoptosis in U-937 cells with Annexin V-FITC and propidium iodide (AnnV/PI), flow cytometry; format: cell-based, human; conditions: 24 hours, compounds at 100-times their 72-hour IC50
Experimental: DMSO stocks of compounds were added to a 24-well plate in singlicate (0.2% DMSO final). After compound addition, 0.5 mL of a U-937 cell suspension (250,000 cells/mL) was added and allowed to incubate for 24 hours. Following treatment, the cell suspensions were transferred to flow cytometry tubes and pelleted (500 g, 3 min). The media was removed by aspiration, and cells were re-suspended in 200 μL AnnV binding buffer (10 mM HEPES, pH 7.4, 140 mM NaCl, 2.5 mM CaCl2) with 5 μg/mL PI and 1:90 dilution of AnnV. Samples were analyzed using flow cytometry.

[1] = tested on: U-937 (hystiocytic lymphoma); test: 72-hour IC50 determination for non-adherent cells using MTS; format: cell-based, human; conditions: 72-hour exposure, MTS, error is standard deviation of the mean, n ≧ 3
Outline: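 U-937 cells (5,000/well) in RPMI-1640 + 10% FBS were exposed to compounds in triplicate (1% DMSO final) for 72 h at 37 °C. Viability was read by PMS/MTS absorbance at 490 nm, with DMSO wells as live and cell-free wells as dead controls. IC50 came from three or more independent experiments.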

human cancer cell lines = test: Anticancer activity in human cancer cell lines, not tied to one cell line; format: cell-based; conditions: human cancer cell lines, 72-hour exposure
Outline: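 Cells exposed 72 h to compound on a half-log scale (1% DMSO final); adherent lines (HeLa, H460, 786-O, MCF7) read by SRB staining at 510 nm, U-937 by MTS/PMS absorbance at 490 nm. IC50 from three or more independent experiments.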

MCF-7 (breast carcinoma) = test: 72-hour IC50 determination for adherent cells using sulforhodamine B (SRB); format: cell-based, human; conditions: error is standard deviation of the mean, n ≧ 3, read-out: MCF-7, 72-hour IC50 (Table E1-2)
Experimental: (§1) Certain provided compounds were tested in culture against a panel of three supplementary human cancer cell lines representing three additional tumor histologies (H460, lung carcinoma; 786-O, renal carcinoma; MCF-7, breast carcinoma). As shown in Table E1-2, the ETPs retain their potency across the cell lines. In some embodiments, a provided compound is active in all cell lines. In some embodiments, a provide compound can be used to selectively target certain cells and/or cancers. […] Without the intention to be limited, Applicant notes that certain cell lines could be more sensitive to provided compounds; for example, U-937 and HeLa are slightly more sensitive to the ETPs than the other three cell lines.
(§2) Cells were grown in media supplemented with fetal bovine serum (FBS) and antibiotics ([…]). Specifically, experiments were performed using the following cell lines and media compositions: U-937, HeLa, H460, and 786-O (RPMI-1640+10% FBS), and MCF7 (EMEM+10% FBS). Cells were incubated at 37° C. in a 5% CO2, 95% humidity atmosphere.
(§3) Adherent cells (HeLa, H460, 786-O, and MCF7) were added into 96-well plates (5,000 cells/well for HeLa cell line; 2,000 cells/well for H460, 786-O, and MCF7 cell lines) in 100 μL media and were allowed to adhere for 2-3 hours. Compounds were solubilized in DMSO as 100× stocks, added directly to the cells (100 μL final volume), and tested over a range of concentrations in triplicate (1% DMSO final) on a half-log scale. Concentrations tested ranged from […] to 10 μM, depending on the potency of the compound. DMSO and cell-free wells served as the live and dead control, respectively. After 72 hours of continuous exposure, the plates were evaluated using the SRB colorimetric assay as described previously (Vichai, V.; Kirtikara, K. Nature Prot. 2006, 1, 1112). Briefly, media was removed from the plate, and cells were fixed by the addition of 100 μL cold 10% trichloroacetic acid in water. After incubating at 4° C. for an hour, the plates were washed in water and allowed to dry. Sulforhodamine B was added as a 0.057% solution in 1% acetic acid (100 μL), and the plates were incubated at room temperature for 30 minutes, washed in 1% acetic acid, and allowed to dry. The dye was solubilized by adding 10 mM Tris base solution (pH 10.5, 200 μL) and incubating at room temperature for 30 minutes. Plates were read at λ=510 nm. IC50 values were determined from three or more independent experiments using TableCurve (San Jose, Calif.).

786-O (renal carcinoma) = test: as above; format: cell-based, human; conditions: error is standard deviation of the mean, n ≧ 3, read-out: 786-O, 72-hour IC50 (Table E1-2)
Experimental: as §1, §2, §3

H460 (lung carcinoma) = test: as above; format: cell-based, human; conditions: error is standard deviation of the mean, n ≧ 3, read-out: H460, 72-hour IC50 (Table E1-2)
Experimental: as §1, §2, §3

[2] = tested on: HeLa (cervical carcinoma); test: as above; format: cell-based, human; conditions: 72-hour exposure, SRB, error is standard deviation of the mean, n ≧ 3
Outline: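 HeLa cells were seeded at 5,000 cells/well in RPMI-1640 with 10% FBS and exposed continuously for 72 hours to compounds on a half-log scale (1% DMSO final, triplicate). Cells were then TCA-fixed, stained with sulforhodamine B and read at 510 nm. IC50 values came from three or more independent experiments.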

[3] = Stability observed on isolation (concentration / solution); conditions: observed during isolation and characterization
[4] = read-out: U-937, 72-hour IC50 (Table E1-1)
[5] = read-out: U-937, 72-hour IC50 (Table E1-2)
[6] = read-out: HeLa, 72-hour IC50 (Table E1-1)
[7] = read-out: HeLa, 72-hour IC50 (Table E1-2)
[8] = Homo sapiens, U-937, read-out: U-937, 72-hour IC50 (Table E1-1)
[9] = Homo sapiens, U-937, read-out: U-937, 72-hour IC50 (Table E1-2)
[10] = Homo sapiens, MCF7, 72-hour exposure
[11] = Homo sapiens, 786-0, 72-hour exposure
[12] = Homo sapiens, NCI-H460, 72-hour exposure
[13] = Homo sapiens, HeLa, read-out: HeLa, 72-hour IC50 (Table E1-1)
[14] = Homo sapiens, HeLa, read-out: HeLa, 72-hour IC50 (Table E1-2)

| Compound | induction of apoptosis (phosphatidylserine exposure / propidium iodide inclusion) (U-937 cells) | IC50 [1, 4] | IC50 [1, 5] | anticancer activity, in words (human cancer cell lines) | IC50 (MCF-7 (breast carcinoma); 72-hour exposure) | IC50 (786-O (renal carcinoma); 72-hour exposure) | IC50 (H460 (lung carcinoma); 72-hour exposure) | IC50 [2, 6] | IC50 [2, 7] | IC50 [1, 8] | IC50 [1, 9] | stability upon concentration or in solution [3] | IC50 (MCF-7 (breast carcinoma); [10]) | IC50 (786-O (renal carcinoma); [11]) | IC50 (H460 (lung carcinoma); [12]) | IC50 [2, 13] | IC50 [2, 14] |
| --- | --- | --- | --- | --- | --- | --- | --- | --- | --- | --- | --- | --- | --- | --- | --- | --- | --- |
| CN1C(=O)[C@@]23C[C@]4([C@]56C[C@@]78SSS[C@@](CO)(C(=O)N7[C@H]5Nc5ccccc56)N(C)C8=O)c5ccccc5N[C@@H]4N2C(=O)[C@]1(CO)SSS3 [Compound 5, (+)-chaetocin C] | induce caspase-dependent apoptotic cell death; also recorded: induce apoptosis | 0.00075 ± 0.00013 µM | 0.00075 ± 0.00013 µM | active across the board | 0.027 ± 0.011 µM | 0.0146 ± 0.0008 µM | 0.026 ± 0.0093 µM | 0.0063 ± 0.0006 µM | 0.0063 ± 0.0006 µM |  |  |  |  |  |  |  |  |
| CN1C(=O)C23CC4(c5c[nH]c6ccccc56)c5ccccc5N(S(=O)(=O)c5ccccc5)C4N2C(=O)C1SS3 (centres unmarked) [Compound 26, C3-(Indol-3′-yl) epidithiodiketopiperazine] | induce caspase-dependent apoptotic cell death; also recorded: induce apoptosis | 0.0028 ± 0.0003 µM | 0.0028 ± 0.0003 µM |  | 0.067 ± 0.019 µM | 0.0627 ± 0.0076 µM | 0.066 ± 0.019 µM | 0.0417 ± 0.0057 µM | 0.0417 ± 0.0057 µM |  |  |  |  |  |  |  |  |
| CN1C(=O)[C@@]23C[C@]4(c5c[nH]c6ccccc56)c5ccccc5N(S(=O)(=O)c5ccccc5)[C@@H]4N2C(=O)[C@@H]1SSS3 [Compound 27, C3-(Indol-3′-yl) epitrithiodiketopiperazine] |  |  |  |  |  |  |  |  |  | 0.0366 ± 0.0024 µM | 0.0366 ± 0.0024 µM | tends to degrade | 0.151 ± 0.031 µM | 0.145 ± 0.01 µM | 0.146 ± 0.0069 µM | 0.0275 ± 0.0092 µM | 0.0275 ± 0.0092 µM |
| CN1C(=O)[C@@]23C[C@]4(c5c[nH]c6ccccc56)c5ccccc5N(S(=O)(=O)c5ccccc5)[C@@H]4N2C(=O)[C@@H]1SSSS3 [Compound 28, C3-(Indol-3′-yl) epitetrathiodiketopiperazine] |  |  |  |  |  |  |  |  |  | 0.0083 ± 0.0033 µM | 0.0083 ± 0.0033 µM | instability in solution | 0.309 ± 0.031 µM | 0.344 ± 0.02 µM | 0.277 ± 0.043 µM | 0.137 ± 0.086 µM | 0.137 ± 0.086 µM |
| CN1C(=O)[C@@]23C[C@]4(c5c[nH]c6ccccc56)c5ccccc5N[C@@H]4N2C(=O)[C@@H]1SSS3 [Compound 29, C3-(Indol-3′-yl) epitrithiodiketopiperazine] |  |  |  |  |  |  |  |  |  | 0.0245 ± 0.0074 µM | 0.0245 ± 0.0074 µM | tends to degrade | 0.217 ± 0.035 µM | 0.168 ± 0.034 µM | 0.348 ± 0.11 µM | 0.123 ± 0.029 µM | 0.123 ± 0.029 µM |
| CN1C(=O)C23CC4(c5c[nH]c6ccccc56)c5ccccc5N(S(=O)(=O)c5ccccc5)[C@@H]4N2C(=O)[C@H]1SC(=S)S3 (some centres unmarked) [Compound 36, C3-(Indol-3′-yl)dithiepanethione] |  |  |  | competent anticancer agents |  |  |  |  |  | 0.0038 ± 0.0009 µM | 0.0038 ± 0.0009 µM | tends to degrade | 0.163 ± 0.007 µM | 0.133 ± 0.01 µM | 0.19 ± 0.061 µM | 0.033 ± 0.013 µM | 0.033 ± 0.013 µM |
| CC(=O)S[C@H]1C(=O)N2[C@H]3N(S(=O)(=O)c4ccccc4)c4ccccc4[C@@]3(c3c[nH]c4ccccc34)C[C@]2(SC(C)=O)C(=O)N1C [Compound 44, C3-(Indol-3′-yl)bisthloaeetate] |  |  |  | competent anticancer agents |  |  |  |  |  | 0.0041 ± 0.0005 µM | 0.0041 ± 0.0005 µM |  | 0.103 ± 0.037 µM | 0.151 ± 0.007 µM | 0.149 ± 0.059 µM | 0.0173 ± 0.0045 µM | 0.0173 ± 0.0045 µM |
| CSS[C@H]1C(=O)N2[C@H]3N(S(=O)(=O)c4ccccc4)c4ccccc4[C@@]3(c3cn(SC)c4ccccc34)C[C@]2(SSC)C(=O)N1C [Compound 45, C3-(Indol-3′-yl) N-(thiomethyl)bis(methyldisulfane)] |  |  |  | competent anticancer agents |  |  |  |  |  | 0.0145 ± 0.0091 µM | 0.0145 ± 0.0091 µM |  | 0.373 ± 0.075 µM | 0.376 ± 0.12 µM | 0.252 ± 0.037 µM | 0.0137 ± 0.0023 µM | 0.0137 ± 0.0023 µM |
| CN1C(=O)C23CC4(c5c[nH]c6ccccc56)c5ccccc5N(S(=O)(=O)c5ccccc5)C4N2C(=O)C1(C)SC(=S)S3 (centres unmarked) [Compound 64, C3-(Indo-3′-v)dithiepanethiones] |  | 0.024 ± 0.012 µM | 0.024 ± 0.012 µM | competent anticancer agents | 0.21 ± 0.073 µM | 0.266 ± 0.085 µM | 0.222 ± 0.072 µM | 0.0253 ± 0.002 µM | 0.0253 ± 0.002 µM |  |  |  |  |  |  |  |  |
